Test results taken from patent publication US4781863A, “Aminocarnitines” (Cornell Research Foundation, Inc., priority 1987, dated 1988).
Values belong to the compound of their own block, whether it stands above or below them.

Key:
[1] = toxicity of administered amount in mice; assay type: in vivo; settings: 5 mmol/kg intraperitoneally
Description: (§1) Four mice were injected subcutaneously with 0.5 mmol/kg carbon 14 tagged acetylcarnitine. Two of them were injected intraperitoneally with 5 mmol/kg of AAC. The carbon 14 CO2 output of the mice was monitored every 15 minutes for 6 hours and for each mouse a graph was prepared with time on the X-axis and % of radiolabelled CO2 on the Y-axis. […] The amount of AAC administered was not toxic to the mice.

CAT = target: T1, CAT (Mus musculus, UniProt P47934); assay: carbon 14 CO2 output of mice given carbon 14 tagged acetylcarnitine; assay type: in vivo; settings: 5 mmol/kg intraperitoneally, 0.5 mmol/kg carbon 14 acetylcarnitine subcutaneously, monitored 6 hours
T1 construct: from tissue; host or cells: whole living mice (endogenous enzyme)
T1 sequence (P47934 1-626): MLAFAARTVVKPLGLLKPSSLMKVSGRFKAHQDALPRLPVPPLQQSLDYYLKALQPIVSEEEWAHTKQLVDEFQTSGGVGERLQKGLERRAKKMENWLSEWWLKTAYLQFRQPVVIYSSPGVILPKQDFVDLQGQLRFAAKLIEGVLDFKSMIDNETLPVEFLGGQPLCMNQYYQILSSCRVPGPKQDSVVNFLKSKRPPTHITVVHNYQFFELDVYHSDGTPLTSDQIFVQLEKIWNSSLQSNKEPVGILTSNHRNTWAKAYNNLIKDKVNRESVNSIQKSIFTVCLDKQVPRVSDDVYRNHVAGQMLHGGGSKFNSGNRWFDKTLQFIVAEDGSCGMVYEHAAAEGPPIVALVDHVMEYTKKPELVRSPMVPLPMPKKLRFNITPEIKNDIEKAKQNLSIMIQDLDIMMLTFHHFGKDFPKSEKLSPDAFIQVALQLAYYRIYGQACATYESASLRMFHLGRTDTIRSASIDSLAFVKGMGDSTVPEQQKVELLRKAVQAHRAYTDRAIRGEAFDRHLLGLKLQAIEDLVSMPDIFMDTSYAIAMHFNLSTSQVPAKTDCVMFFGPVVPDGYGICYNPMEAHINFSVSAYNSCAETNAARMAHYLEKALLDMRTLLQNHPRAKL
Description: as §1

[2] = target: T2, carnitine acetyltransferase (Columba livia, UniProt P52826); assay: carnitine acetyltransferase inhibition assay (coupled CS/MDH, NADH at 340 mμ); assay type: biochemical
T2 sequence (P52826 31-627): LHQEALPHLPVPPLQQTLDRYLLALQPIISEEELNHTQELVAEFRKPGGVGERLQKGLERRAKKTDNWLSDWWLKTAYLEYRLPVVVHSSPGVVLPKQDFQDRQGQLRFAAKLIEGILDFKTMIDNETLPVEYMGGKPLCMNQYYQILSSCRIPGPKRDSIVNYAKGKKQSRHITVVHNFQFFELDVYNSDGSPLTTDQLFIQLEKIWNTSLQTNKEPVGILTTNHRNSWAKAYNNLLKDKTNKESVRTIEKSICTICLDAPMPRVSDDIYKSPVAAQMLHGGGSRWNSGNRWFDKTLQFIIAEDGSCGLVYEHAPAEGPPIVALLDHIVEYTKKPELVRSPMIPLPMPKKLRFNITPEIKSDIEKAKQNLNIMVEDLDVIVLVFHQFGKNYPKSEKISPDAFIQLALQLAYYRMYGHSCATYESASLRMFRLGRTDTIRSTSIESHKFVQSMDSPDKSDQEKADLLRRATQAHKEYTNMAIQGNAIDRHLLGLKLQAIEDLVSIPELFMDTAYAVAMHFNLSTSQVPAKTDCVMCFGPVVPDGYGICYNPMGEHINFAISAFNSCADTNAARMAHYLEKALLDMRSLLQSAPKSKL
Description: D,L-3-acetamido-4-trimethylaminobutyric acid.H2 O, referred to hereinafter as AAC, was assayed for inhibition of carnitine acetyltransferase.
The procedure used is described in Fritz, I. B., Schultz, S. K., and Srere, P. A., "Properties of Partially Purified Carnitine Acetyltransferase", J. Biol. Chem., 238, 2509-2517 (1963).
The assay was based on the following reactions wherein CAT is used to denote carnitine acetyltransferase, CS is used to denote citrate synthase, MDH is used to denote malate dehydrogenase, NAD is used to denote β-nicotinamide adenine dinucleotide (unreduced form) and NADH is used to denote β-nicotinamide adenine dinucleotide (reduced form):
The assay is based on the fact that the velocity of reaction to produce acetyl-Coenzyme A is reduced to the extent that CAT is inhibited. Reactions (2) and (3) are a detection system for acetyl-Coenzyme A wherein acetyl-Coenzyme A, as it is produced, reacts with oxaloacetate thereby causing the MDH to catalyze production of oxaloacetate to replace that which is used and resulting in production of NADH which is detected using a spectrophotometer based on its property of absorbing light at 340 mμ. Thus, when CAT is bound and inhibited, the rate of NADH production is decreased and the rate of increase of absorbency at 340 mμ is decreased. The results are readily compiled in a Lineweaver-Burk plot of the reciprocal of reaction velocity versus the reciprocal of concentration of acetylcarnitine and the data can be analyzed to o provide Ki ' values as mentioned above.
Sixteen runs were carried out. They consisted of a set of 4 runs where 1 mM of D,L-acetylcarnitine (pH 8.0) was included, a set of 4 runs where 2 mM of D,L-acetylcarnitine was included, a set of 4 runs where 5 mM of D,L-acetylcarnitine was included and a set of 4 runs where 10 mM of D,L-acetylcarnitine was included. In each set of runs, one run was conducted without AAC, one run was conducted with 0.1 mM AAC, one run was conducted with 0.5 mM AAC, and one run was conducted with 1.0 mM AAC.
Each run was carried out utilizing a cuvette with 1 ml total being added to it. To each cuvette was added 0.7 ml of a premix of aqueous solutions of Tris-HCl buffer, NAD^+, dithiothreitol, and Tris D,L-malate, pH of 8.0 (concentrations in the premix were as follows: Tris-HCl, 143 mM; NAD^+, 0.71 mM; dithiothreitol, 4.3 mM; and Tris D,L-malate, 14.3 mM, the selected amount of D,L-acetylcarnitine as described above, 0.05 ml of a 4 mM aqueous solution of Coenzyme A, 0.025 ml of a 168 units/ml solution of CS, 0.025 ml of a 240 units/ml solution of MDH, the selected amount of AAC as described above, and water to 0.995 ml. The D,L-acetylcarnitine was added utilizing solution of concentration of 100 mM (in other words 0.010 ml for the first set of runs, 0.020 ml for the second set of runs, 0.050 ml for the third set of runs, 0.100 ml for the fourth set of runs). The AAC was added utilizing solution of concentration of 100 mM (in other words, additions for runs in each set were of 0 ml, 0.001 ml, 0.005 ml and 0.010 ml).
After the above described reactants were added, each cuvette and its contents were incubated for 15 minutes at 30° C.
Directly after the incubation period, 0.005 ml of CAT (concentration 5 units/ml) was added in each case.
The reaction rate in each case was measured as described above as a function of change in absorbance at 340 mμ (providing a time course of NADH formation) and was expressed as mole NADH/min. (1 mM NADH =6.2×ΔA340).
A Ki 'value for the D,L form of AAC was calculated to be 5×10^-5 M which is 10^-2 to 10^-3 times the Ki ' values found by Fritz and Schultz for the compounds they tested.

[3] = cited from earlier work
[4] = test system: carnitine palmitoyltransferase; assay: binding and inhibition of carnitine palmitoyltransferase; assay type: biochemical; settings: no test described

Structure (SMILES): CC(=O)NC(CC(=O)[O-])C[N+](C)(C)C (racemic) [AAC, D,L-3-acetamido-4-trimethylaminobutyric acid.H2 O]
toxicity of the amount administered [1]: not toxic
rate of radiolabelled CO2 output (CAT): retarded rate of radiolabelled CO2 output
Ki' relative to the Ki' values found by Fritz and Schultz for the compounds they tested [2]: 10^-2 to 10^-3 times
reversibility of binding action [2]: reversible by dilution
Ki ([2]; D,L form, Lineweaver-Burk plot, 1-10 mM D,L-acetylcarnitine, pH 8.0, 30° C): 50 µM
mode of inhibition of CAT ([2]; Lineweaver-Burk plot, same site as acetyl carnitine): competitive inhibitor
inhibition at 100 µM ([2]; at a concentration of 0.1 mM, read-out: inhibition of formation of acetyl-Coenzyme A): 34%
inhibition at 500 µM ([2]; at a concentration of 0.5 mM, read-out: inhibition of formation of acetyl-Coenzyme A): 67%
inhibition at 1000 µM ([2]; at a concentration of 1 mM, read-out: inhibition of formation of acetyl-Coenzyme A): 81%
binding to CAT relative to acetylcarnitine (times more tightly) ([2]; from Lineweaver-Burk plot): 18 times

Structure (SMILES): C[N+](C)(C)CC(CC(=O)[O-])OC(=O)CBr [Bromoacetyl-L-carnitine]
toxicity in vivo [3]: toxicity due to release of bromine and/or bromoacetate

reversibility of binding action [2]: irreversible
inhibition of CAT ([2]; no test described): inhibits CAT similarly to AAC
Structure (SMILES): C[N+](C)(C)CC(CC(=O)[O-])NC(=O)CBr (racemic) [D,L-3-bromoacetamido-4-trimethylaminobutyricacid.H2 O]

Structure (SMILES): CCCCCCCCCCCCCCCC(=O)NC(CC(=O)[O-])C[N+](C)(C)C (racemic) [PAC, D,L-3-palmitoamido-4-trimethylaminobutyric acid.H2 O]
binding and inhibition of carnitine palmitoyltransferase [4]: readily binds to and inhibits carnitine palmitoyltransferase
